How the values were obtained:
[1] = target: Transient receptor potential cation channel subfamily V member 1 (Homo sapiens, UniProt Q8NER1); assay: Antagonist activity at human TRPV1 expressed in HEK293 cells assessed as inhibition of capsaicin-induced calcium flux; type: functional, cell-based
[2] = target: Transient receptor potential cation channel subfamily V member 1 (Rattus norvegicus, UniProt O35433); assay: Antagonist activity at rat TRPV1 expressed in HEK293 cells assessed as inhibition of capsaicin-induced calcium flux; type: functional, cell-based
Chain of Transient receptor potential cation channel subfamily V member 1 (Rattus norvegicus, UniProt O35433) (O35433 whole entry): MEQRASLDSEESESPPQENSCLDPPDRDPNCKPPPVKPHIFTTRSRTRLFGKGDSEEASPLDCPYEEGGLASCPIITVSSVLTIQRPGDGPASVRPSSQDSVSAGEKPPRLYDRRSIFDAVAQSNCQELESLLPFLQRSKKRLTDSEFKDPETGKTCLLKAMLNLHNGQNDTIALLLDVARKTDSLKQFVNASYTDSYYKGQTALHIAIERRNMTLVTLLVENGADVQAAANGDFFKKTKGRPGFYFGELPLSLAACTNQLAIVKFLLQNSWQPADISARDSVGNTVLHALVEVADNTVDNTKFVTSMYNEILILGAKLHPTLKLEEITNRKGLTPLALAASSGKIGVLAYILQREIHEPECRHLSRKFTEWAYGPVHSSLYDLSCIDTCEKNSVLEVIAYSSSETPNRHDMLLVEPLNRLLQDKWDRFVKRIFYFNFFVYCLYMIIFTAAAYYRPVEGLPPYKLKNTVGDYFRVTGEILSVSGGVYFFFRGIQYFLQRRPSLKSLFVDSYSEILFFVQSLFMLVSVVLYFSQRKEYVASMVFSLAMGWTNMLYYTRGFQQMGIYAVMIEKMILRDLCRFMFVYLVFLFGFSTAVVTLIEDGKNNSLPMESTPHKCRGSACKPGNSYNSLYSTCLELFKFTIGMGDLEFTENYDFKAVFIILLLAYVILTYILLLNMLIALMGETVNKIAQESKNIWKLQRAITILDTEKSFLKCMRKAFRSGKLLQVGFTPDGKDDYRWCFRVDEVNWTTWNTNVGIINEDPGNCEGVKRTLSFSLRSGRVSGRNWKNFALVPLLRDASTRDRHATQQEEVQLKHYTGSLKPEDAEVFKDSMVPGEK

[3] = Clearance in fasted Sprague-Dawley rat at 0.5 mg/kg, iv and 2 mg/kg, po; type: ADME, organism-based; details: in vivo
[4] = Cmax in fasted Sprague-Dawley rat at 2 mg/kg, po; type: ADME, organism-based; design: dose 2 mg/kg, route oral; details: in vivo
[5] = Half life in fasted Sprague-Dawley rat at 0.5 mg/kg, iv and 2 mg/kg, po; type: ADME, organism-based; details: in vivo
[6] = Bioavailability in fasted Sprague-Dawley rat at 0.5 mg/kg, iv and 2 mg/kg, po; type: ADME, organism-based; details: in vivo
[7] = Volume of distribution at steady state in fasted Sprague-Dawley rat at 0.5 mg/kg, iv and 2 mg/kg, po; type: ADME, organism-based; details: in vivo, read-out: Vdss
[8] = system: Rattus norvegicus; assay: AUC (infinity) in fasted Sprague-Dawley rat at 2 mg/kg, po; type: ADME, organism-based, Plasma; design: time infinity, dose 2 mg/kg, route oral; details: in vivo
[9] = Tmax in fasted Sprague-Dawley rat at 2 mg/kg, po; type: ADME, organism-based; design: dose 2 mg/kg, route oral; details: in vivo

Chain of Transient receptor potential cation channel subfamily V member 1 (Homo sapiens, UniProt Q8NER1) (Q8NER1 whole entry): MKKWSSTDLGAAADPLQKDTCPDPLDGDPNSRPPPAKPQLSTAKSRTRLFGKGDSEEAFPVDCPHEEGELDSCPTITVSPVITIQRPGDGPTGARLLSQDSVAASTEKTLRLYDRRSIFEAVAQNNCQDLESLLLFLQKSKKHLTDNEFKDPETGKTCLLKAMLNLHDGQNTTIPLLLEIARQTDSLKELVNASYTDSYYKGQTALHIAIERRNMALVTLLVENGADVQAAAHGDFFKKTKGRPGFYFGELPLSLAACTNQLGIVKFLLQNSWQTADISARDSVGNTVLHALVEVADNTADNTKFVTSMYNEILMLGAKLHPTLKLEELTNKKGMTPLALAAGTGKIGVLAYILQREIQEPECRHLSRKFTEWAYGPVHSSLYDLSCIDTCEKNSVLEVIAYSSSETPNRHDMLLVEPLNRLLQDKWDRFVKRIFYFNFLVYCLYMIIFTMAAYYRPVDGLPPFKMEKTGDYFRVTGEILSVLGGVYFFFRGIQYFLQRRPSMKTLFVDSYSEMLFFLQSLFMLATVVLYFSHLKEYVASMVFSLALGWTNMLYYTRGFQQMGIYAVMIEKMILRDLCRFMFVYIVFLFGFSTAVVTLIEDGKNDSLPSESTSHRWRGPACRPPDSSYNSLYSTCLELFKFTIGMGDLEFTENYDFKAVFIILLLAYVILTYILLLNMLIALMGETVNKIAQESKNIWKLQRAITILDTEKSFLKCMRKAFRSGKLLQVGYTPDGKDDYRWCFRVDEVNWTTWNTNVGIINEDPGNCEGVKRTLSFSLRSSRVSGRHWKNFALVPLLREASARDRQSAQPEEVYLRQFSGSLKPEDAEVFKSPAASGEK

Row | SMILES | IC50 [1] | IC50 [2] | also measured
1 | CC(C)(C)c1ccc(Oc2ncnc3sc(Nc4c(Cl)cccc4Cl)nc23)cc1 | > 5000 nM | > 5000 nM | –
2 | Cc1cccc(Cl)c1Nc1nc2c(Nc3ccc(C(F)(F)F)cc3)ncnc2s1 | 9 nM | 1.6 nM | –
3 | Clc1cccc(Cl)c1Nc1nc2c(Nc3ccccc3)ncnc2s1 | 176 nM | 170 nM | –
4 | CC(C)c1ccc(Nc2ncnc3sc(Nc4c(Cl)cccc4Cl)nc23)cc1 | 10 nM | 3 nM | –
5 | CC(C)Nc1nc(Nc2ccc(C(F)(F)F)cc2)c2nc(Nc3c(Cl)cccc3Cl)sc2n1 | 13 nM | 9 nM | –
6 | FC(F)(F)c1ccc(Nc2ncnc3c2CCN(c2ncccc2C(F)(F)F)C3)cc1 | 15 nM | 71 nM | –
7 | O=C(O)c1cc(Cl)c(Nc2nc3c(Nc4ccc(C(F)(F)F)cc4)ncnc3s2)c(Cl)c1 | > 5000 nM | > 5000 nM | –
8 | FC(F)(F)c1ccc(Nc2ncnc3sc(Nc4ncccc4C(F)(F)F)nc23)cc1 | > 5000 nM | > 5000 nM | –
9 | FC(F)(F)c1ccc(Nc2ncnc3sc(Nc4ccccc4C(F)(F)F)nc23)cc1 | 74 nM | 37 nM | –
10 | CN(C)c1nc(Nc2ccc(C(F)(F)F)cc2)c2nc(Nc3c(Cl)cccc3Cl)sc2n1 | 59 nM | 43 nM | –
11 | FC(F)(F)c1ccc(Nc2ncnc3sc(Nc4cccc(C(F)(F)F)c4)nc23)cc1 | > 5000 nM | > 5000 nM | –
12 | NC(=O)c1ccc(Nc2ncnc3sc(Nc4c(Cl)cccc4Cl)nc23)cc1 | > 5000 nM | > 5000 nM | –
13 | FC(F)(F)c1ccc(Nc2nc(N3CCNCC3)nc3sc(Nc4c(Cl)cccc4Cl)nc23)cc1 | > 5000 nM | > 5000 nM | –
14 | FC(F)(F)c1ccc(Nc2cccc3sc(Nc4c(Cl)cccc4Cl)nc23)cc1 | > 5000 nM | > 5000 nM | –
15 | Cc1ccc(Nc2ncnc3sc(Nc4c(Cl)cccc4Cl)nc23)cc1 | 33 nM | 32 nM | –
16 | CSc1nc(Nc2ccc(C(F)(F)F)cc2)c2nc(Nc3c(Cl)cccc3Cl)sc2n1 | 224 nM | 113 nM | –
17 | Cc1cccc(C)c1Nc1nc2c(Nc3ccc(C(F)(F)F)cc3)ncnc2s1 | 23 nM | – | –
18 | FC(F)(F)c1ccc(Sc2ncnc3sc(Nc4c(Cl)cccc4Cl)nc23)cc1 | > 5000 nM | > 5000 nM | –
19 | CS(=O)(=O)c1nc(Nc2ccc(C(F)(F)F)cc2)c2nc(Nc3c(Cl)cccc3Cl)sc2n1 | 274 nM | 77 nM | –
20 | N#Cc1cc(Cl)c(Nc2nc3c(Nc4ccc(C(F)(F)F)cc4)ncnc3s2)c(Cl)c1 | 95 nM | 53 nM | –
21 | OCc1cc(Cl)c(Nc2nc3c(Nc4ccc(C(F)(F)F)cc4)ncnc3s2)c(Cl)c1 | – | 0.5 nM | clearance [3]: 23.3 mL/min/kg; Cmax [4]: 200 nM; half-life [5]: 1.8 h; bioavailability [6]: 45%; Vd [7]: 2.9 L/kg; AUC [8]: 638 ng·h/mL; Tmax [9]: 4 h
22 | NS(=O)(=O)c1ccc(Nc2ncnc3sc(Nc4c(Cl)cccc4Cl)nc23)cc1 | > 5000 nM | 590 nM | –
23 | CS(=O)(=O)c1ccc(Nc2ncnc3sc(Nc4c(Cl)cccc4Cl)nc23)cc1 | 5 nM | 3 nM | clearance [3]: 60 mL/min/kg; half-life [5]: 1.2 h; Vd [7]: 2.2 L/kg
24 | CC(C)N1CCN(c2nc(Nc3ccc(C(F)(F)F)cc3)c3nc(Nc4c(Cl)cccc4Cl)sc3n2)CC1 | – | 119 nM | –
25 | CC(C)(C(=O)O)c1ccc(Nc2ncnc3sc(Nc4c(Cl)cccc4Cl)nc23)cc1 | 31 nM | – | –
26 | Cc1ccccc1Nc1nc2c(Nc3ccc(C(F)(F)F)cc3)ncnc2s1 | 51 nM | 14 nM | –
27 | FC(F)(F)c1ccc(Nc2nc(-c3ccccc3)nc3sc(Nc4c(Cl)cccc4Cl)nc23)cc1 | 539 nM | 104 nM | –

From ChEMBL document CHEMBL1139308, “Identification and synthesis of 2,7-diamino-thiazolo[5,4-d]pyrimidine derivatives as TRPV1 antagonists” (Bioorg Med Chem Lett, 2009)
